Results reported in patent US20240279159A1, “HERBICIDAL ARYLCYCLOPENTENE CARBOXAMIDES” (BASF SE, priority 2021, published 2024).

Legend:
[1] = tested on: AMARE; experiment: greenhouse herbicidal test, post-emergence treatment; assay type: in vivo, Amaranthus retroflexus; details: post-emergence method, scale from 0 to 100
Excerpt: (§1) The culture containers used were plastic flowerpots containing loamy sand with approximately 3.0% of humus as the substrate. The seeds of the test plants were sown separately for each species.
(§2) For the pre-emergence treatment, the active ingredients, which had been suspended or emulsified in water, were applied directly after sowing by means of finely distributing nozzles. The containers were irrigated gently to promote germination and growth and subsequently covered with transparent plastic hoods until the test plants had rooted. This cover caused uniform germination of the test plants, unless this had been impaired by the active ingredients. For the post-emergence treatment, the test plants were first grown to a height of 3 to 15 cm, depending on the plant habit, and only then treated with the active ingredients which had been suspended or emulsified in water. For this purpose, the test plants were either sown directly and grown in the same containers, or they were first grown separately as seedlings and transplanted into the test containers a few days prior to treatment.
(§3) Depending on the species, the test plants were kept at 10-25° C. or 20-35° C., respectively. The test period extended over 2 to 4 weeks. During this time, the test plants were tended, and their response to the individual treatments was evaluated.
(§4) Evaluation was carried out using a scale from 0 to 100. […]

[2] = tested on: ABUTH; experiment: as above; assay type: in vivo, Abutilon theophrasti; details: post-emergence method, application rate 0.250 kg/ha; scale from 0 to 100
Excerpt: as §1, §2, §3, §4

[3] = tested on: ALOMY; experiment: as above; assay type: in vivo, Alopercurus myosuroides; details: post-emergence method, scale from 0 to 100
Excerpt: as §1, §2, §3
Evaluation was carried out using a scale from 0 to 100. 100 means no emergence of the test plants, or complete destruction of at least the aerial moieties, and 0 means no damage, or normal course of growth. A good herbicidal activity is given at values of 60 to 90 and a very good herbicidal activity is given at values of 90 to 100.
The test plants used in the greenhouse experiments were of the following species: […]

[4] = tested on: AMARE; experiment: greenhouse herbicidal test, pre-emergence treatment; assay type: in vivo, Amaranthus retroflexus; details: pre-emergence method, application rate 0.250 kg/ha; scale from 0 to 100
Excerpt: as §1, §2, §3, §4

[5] = tested on: ECHCG; experiment: greenhouse herbicidal test, post-emergence treatment; assay type: in vivo, Echinocloa crus-galli; details: post-emergence method, application rate 0.250 kg/ha; scale from 0 to 100
Excerpt: as §1, §2, §3, §4

[6] = tested on: ECHCG; experiment: greenhouse herbicidal test, pre-emergence treatment; assay type: in vivo, Echinocloa crus-galli; details: pre-emergence method, application rate 1,000 kg/ha; scale from 0 to 100
Excerpt: as §1, §2, §3, §4

[7] = tested on: SETFA; experiment: as above; assay type: in vivo, Setaria faberi; details: pre-emergence method, application rate 1,000 kg/ha; scale from 0 to 100
Excerpt: as §1, §2, §3, §4

COC(=O)C[C@H](C)NC(=O)C1(C)CC(c2cc(Cl)cc(Cl)c2)=CO1 (single isomer, unassigned) [I3]
herbicidal activity against AMARE ([1]; application rate 1.000 kg/ha): very good (a very good herbicidal activity is given at values of 90 to 100)

COC(=O)C1CCC(NC(=O)C2(C)CC(c3cc(Cl)cc(Cl)c3)=CO2)C1 (stereo not shown) [I14]
herbicidal activity against ABUTH [2]: good (A good herbicidal activity is given at values of 60 to 90)
herbicidal activity against AMARE ([1]; application rate 0.250 kg/ha): good (A good herbicidal activity is given at values of 60 to 90)

COC(=O)C[C@H](C)NC(=O)C1(C)CC(c2cc(F)cc(F)c2)=CO1 (single isomer, unassigned) [I1]
herbicidal activity against ALOMY ([3]; application rate 1.000 kg/ha): very good (a very good herbicidal activity is given at values of 90 to 100)

COC(=O)[C@@H]1C=C[C@H](NC(=O)C2(C(F)(F)F)CC(c3cc(F)cc(F)c3)=CO2)C1 (relative stereo) [I8]
herbicidal activity against AMARE [4]: good (A good herbicidal activity is given at values of 60 to 90)

COC(=O)[C@@H]1C=C[C@H](NC(=O)C2(C)CC=C(c3cc(F)cc(F)c3)C2=O)C1 (stereo partly drawn) [I111, methyl (1S,4R)-4-[[3-(3,5-difluorophenyl)-1-methyl-2-oxo-cyclopent-3-ene-1-carbonyl]amino]cyclopent-2-ene-1-carboxylate]
herbicidal activity against ECHCG [5]: good (A good herbicidal activity is given at values of 60 to 90)

COC(=O)[C@@H]1C=C[C@H](NC(=O)C2(C)CC(c3cc(Cl)cc(Cl)c3)=CO2)C1 (relative stereo) [I6]
herbicidal activity against ALOMY ([3]; application rate 0.250 kg/ha): very good (a very good herbicidal activity is given at values of 90 to 100)

COC(=O)C[C@H](C)NC(=O)C1(C)CC(c2cc(F)cc(F)c2)=CO1 (single isomer, unassigned) [I2]
herbicidal activity against ECHCG [6]: good (A good herbicidal activity is given at values of 60 to 90)
herbicidal activity against SETFA [7]: good (A good herbicidal activity is given at values of 60 to 90)
herbicidal activity against ALOMY ([3]; application rate 1.000 kg/ha): good (A good herbicidal activity is given at values of 60 to 90)
